Measured values published in patent US4873225A, “1-n-(4-amino-3-fluoro-2-hydroxybutyryl)-kanamycins” (Zaidan Hojin Biseibutsu Kagaku Kenkyu Kai, priority 1987, dated 1989).
In brackets after ≈: the same amount, converted by molar mass. Where two headings read alike, the source gives them in different places.

What was measured:
[1] = test system: gram-positive and gram-negative bacteria, including resistant strains; conditions: reported in earlier applications, cited from earlier work
[2] = test system: Escherichia coli JR66/W677; experiment: MIC, standard serial dilution method; type: cell-based; conditions: for MIC: Escherichia coli
Method: (§1) Antibacterial activities of each of the abovementioned compounds of the general formula (I) according to this invention were determined by measuring their minimum growth inhibitory concentrations (MIC, mcg/ml) against various bacteria in accordance with a standard serial dilution method. The pH condition of the incubation medium where the MIC data were measured was set at pH 7, unless otherwise specifically indicated. For the sake of comparison, the antibacterial spectra of 1-N-{(S)-4-amino-2-hydroxybutyryl}kanamycin A (i.e., amikacin) and 1-N-{(S)-4-amino-2-hydroxybutyryl}-3,4-dideoxykanamycin B (i.e., habekacin) were also measured in the same manner.
(§2) (a) The antibacterial activities of the compounds of this invention are not decreased practically even under pH conditions of pH […] as compared to their antibacterial activities under neutral conditions of pH 7.

[3] = test system: Pseudomonas aeruginosa TI 13; experiment: MIC, standard serial dilution method; type: cell-based; conditions: for MIC: Pseudomonas aeruginosa
Method: as §1, §2

Escherichia coli K-12 R5 = experiment: MIC, standard serial dilution method; type: cell-based; conditions: K12R5, pH 7
Method: as §1
Infectious diseases by Escherichia coli K-12 R5 tend to increase in recent days. The compounds of this invention are therefore important for the therapeutic treatment of bacterial infections.

[4] = test system: Pseudomonas aeruginosa GN 315; experiment: MIC, standard serial dilution method; type: cell-based; conditions: GN315, pH 7
Method: as §1

[5] = test system: Staphylococcus aureus Ap01; experiment: MIC, standard serial dilution method; type: cell-based
Method: as §1

[6] = test system: Corynebacterium bovis 1810; experiment: MIC, standard serial dilution method; type: cell-based; conditions: Corynebacterium bovis, 1810, pH 7
Method: as §1

[7] = test system: Escherichia coli K-12 ML 1629; experiment: MIC, standard serial dilution method; type: cell-based
Method: as §1

[8] = test system: Escherichia coli K-12 LA 290 R55; experiment: MIC, standard serial dilution method; type: cell-based; conditions: K12LA290R55, pH 7
Method: as §1

Serratia marcescens = experiment: MIC, standard serial dilution method; type: cell-based; conditions: pH 7, read-out: MIC
Method: as §1

[9] = test system: Staphylococcus aureus 209P; experiment: MIC, standard serial dilution method; type: cell-based
Method: as §1

Providencia sp. Pv 16 = experiment: MIC, standard serial dilution method; type: cell-based
Method: as §1

Escherichia coli K-12 = experiment: MIC, standard serial dilution method; type: cell-based; conditions: K12, pH 7
Method: as §1

Proteus rettgeri GN 311 = experiment: MIC, standard serial dilution method; type: cell-based; conditions: Providencia rettgeri, GN311, pH 7
Method: as §1

Bacillus subtilis PCI219 = experiment: MIC, standard serial dilution method; type: cell-based
Method: as §1

[10] = test system: Pseudomonas aeruginosa A3; experiment: MIC, standard serial dilution method; type: cell-based
Method: as §1

Mycobacterium 607 = experiment: MIC, standard serial dilution method; type: cell-based; conditions: Mycobacterium, 607, pH 7
Method: as §1

Escherichia coli JR 225 = experiment: MIC, standard serial dilution method; type: cell-based; conditions: JR225, pH 7
Method: as §1

[11] = test system: Klebsiella pneumoniae 22 #3038; experiment: MIC, standard serial dilution method; type: cell-based
Method: as §1

mice = experiment: Acute toxicity against mice; type: in vivo; conditions: orally administered, 150 mg/kg
[12] = JR66/W677, measured at pH 6, read-out: MIC
[13] = TI13, measured at pH 6, read-out: MIC

SMILES | MIC [2, 12] [µg/mL] | MIC [3, 13] [µg/mL] | MIC (Escherichia coli K-12 R5) [µg/mL] | MIC [4] [µg/mL] | MIC [8] [µg/mL] | MIC (Serratia marcescens) [µg/mL] | MIC (Escherichia coli K-12) [µg/mL] | MIC (Escherichia coli JR 225) [µg/mL] | MIC ([2]; JR66/W677, pH 7, read-out: MIC) [µg/mL] | MIC ([3]; TI13, pH 7, read-out: MIC) [µg/mL] | MIC ([5]; AP01, pH 7, read-out: MIC) [µg/mL] | MIC ([6]; read-out: MIC) [µg/mL] | MIC ([7]; K12ML1629, pH 7, read-out: MIC) [µg/mL] | MIC ([9]; pH 7, read-out: MIC) [µg/mL] | MIC (Providencia sp. Pv 16; SP.PV16, pH 7, read-out: MIC) [µg/mL] | MIC (Proteus rettgeri GN 311; read-out: MIC) [µg/mL] | MIC (Bacillus subtilis PCI219; PCI219, pH 7, read-out: MIC) [µg/mL] | MIC ([10]; A3, pH 7, read-out: MIC) [µg/mL] | MIC (Mycobacterium 607; read-out: MIC) [µg/mL] | MIC ([11]; pH 7, read-out: MIC) [µg/mL] | other results
NC[C@H]1O[C@H](O[C@H]2[C@H](F)[C@@H](O[C@H]3O[C@H](CO)[C@@H](O)[C@H](N)[C@H]3O)[C@H](N)C[C@@H]2N)[C@H](N)[C@@H](O)[C@@H]1O [5-deoxy-5-fluorokanamycin B] | – | – | – | – | – | – | – | – | – | – | – | – | – | – | – | – | – | – | – | – | antibacterial activities relative to kanamycin B ([1]; over kanamycin B): enhanced or improved advantageously over kanamycin B
NCC[C@H](O)C(=O)N[C@@H]1C[C@H](N)[C@@H](O[C@H]2O[C@H](CN)[C@@H](O)[C@H](O)[C@H]2O)[C@H](O)[C@H]1O[C@H]1O[C@H](CO)[C@@H](O)[C@H](N)[C@H]1O [Amikacin, 1-N-{(S)-4-amino-2-hydroxybutyryl}kanamycin A, reference compound] | 25 (≈ 42.7 µM) | 12.5 (≈ 21.3 µM) | 25 (≈ 42.7 µM) | 25 (≈ 42.7 µM) | 1.56 (≈ 2.66 µM) | 6.25 (≈ 10.7 µM) | 0.78 (≈ 1.33 µM) | 0.78 (≈ 1.33 µM) | – | – | – | – | – | – | – | – | – | – | – | – | MIC ([2]; JR66/W677, pH 7): 3.12 µg/mL (≈ 5.33 µM); antibacterial activity (MIC) at pH 6 as compared to pH 7 ([2]; pH 6 vs pH 7): reduced considerably at pH 6; MIC ([3]; TI13, pH 7): 3.12 µg/mL (≈ 5.33 µM); antibacterial activity (MIC) at pH 6 as compared to pH 7 ([3]; pH 6 vs pH 7): reduced considerably at pH 6; MIC ([5]; AP01, pH 7): 3.12 µg/mL (≈ 5.33 µM); MIC [6]: 1.56 µg/mL (≈ 2.66 µM); MIC ([7]; K12ML1629, pH 7): 1.56 µg/mL (≈ 2.66 µM); MIC ([9]; pH 7): 1.56 µg/mL (≈ 2.66 µM); MIC (Providencia sp. Pv 16; SP.PV16, pH 7): 1.56 µg/mL (≈ 2.66 µM); MIC (Proteus rettgeri GN 311): 1.56 µg/mL (≈ 2.66 µM); MIC (Bacillus subtilis PCI219; PCI219, pH 7): 1.56 µg/mL (≈ 2.66 µM); MIC ([10]; A3, pH 7): 1.56 µg/mL (≈ 2.66 µM); MIC (Mycobacterium 607): 1.56 µg/mL (≈ 2.66 µM); MIC ([11]; pH 7): 3.12 µg/mL (≈ 5.33 µM)
NC[C@H]1O[C@H](O[C@H]2[C@H](O)[C@@H](O[C@H]3O[C@H](CO)[C@@H](O)[C@H](N)[C@H]3O)[C@H](N)C[C@@H]2N)[C@H](N)[C@@H](F)[C@@H]1O [3'-deoxy-3'-fluorokanamycin B] | – | – | – | – | – | – | – | – | – | – | – | – | – | – | – | – | – | – | – | – | antibacterial activities (in words) [1]: antibacterial activities against various gram-positive and gram-negative bacteria, including resistant strains
NC[C@H]1O[C@H](O[C@H]2[C@H](O)[C@@H](O[C@H]3O[C@H](CO)[C@@H](O)[C@H](N)[C@H]3O)[C@H](N)C[C@@H]2N)[C@H](F)C[C@@H]1O [2',3'-dideoxy-2'-fluorokanamycin A] | – | – | – | – | – | – | – | – | – | – | – | – | – | – | – | – | – | – | – | – | antibacterial activities (in words) [1]: antibacterial activities against gram-positive and gram-negative bacteria, including certain resistant strains of bacteria
NC[C@@H](F)[C@H](O)C(=O)N[C@@H]1C[C@H](N)[C@@H](O[C@H]2O[C@H](CN)[C@@H](O)C[C@H]2F)[C@H](O)[C@H]1O[C@H]1O[C@H](CO)[C@@H](O)[C@H](N)[C@H]1O [Invention Compound No. 3, 1-N-{(2R,3R)-4-Amino-3-fluoro-2-hydroxybutyryl}-2',3'-dideoxy-2'-fluorokanamycin A] | 1.56 (≈ 2.65 µM) | 3.12 (≈ 5.29 µM) | 6.25 (≈ 10.6 µM) | 12.5 (≈ 21.2 µM) | 0.78 (≈ 1.32 µM) | 1.56 (≈ 2.65 µM) | 0.2 (≈ 0.339 µM) | 0.39 (≈ 0.661 µM) | 0.78 (≈ 1.32 µM) | 3.12 (≈ 5.29 µM) | 1.56 (≈ 2.65 µM) | 0.78 (≈ 1.32 µM) | 0.39 (≈ 0.661 µM) | 0.78 (≈ 1.32 µM) | 0.78 (≈ 1.32 µM) | 0.78 (≈ 1.32 µM) | 0.39 (≈ 0.661 µM) | 0.78 (≈ 1.32 µM) | 0.78 (≈ 1.32 µM) | 0.78 (≈ 1.32 µM) | –
NC[C@@H](F)[C@H](O)C(=O)N[C@@H]1C[C@H](N)[C@@H](O[C@H]2O[C@H](CN)[C@@H](O)[C@H](O)[C@H]2O)[C@H](O)[C@H]1O[C@H]1O[C@H](CO)[C@@H](O)[C@H](N)[C@H]1O [Invention Compound Nos. 1] | – | – | – | – | – | – | – | – | – | – | – | – | – | – | – | – | – | – | – | – | survival of mice (mice): all mice surrived
NC[C@H]1O[C@H](O[C@H]2[C@H](O)[C@@H](O[C@H]3O[C@H](CO)[C@@H](O)[C@H](N)[C@H]3O)[C@H](N)C[C@@H]2N)[C@H](O)[C@@H](F)[C@@H]1O [3'-deoxy-3'-fluorokanamycin A] | – | – | – | – | – | – | – | – | – | – | – | – | – | – | – | – | – | – | – | – | antibacterial activities (in words) [1]: effective also against kanamycin-resistant bacteria
NC[C@@H]1CC[C@@H](N)[C@@H](O[C@H]2[C@H](F)[C@@H](O[C@H]3O[C@H](CO)[C@@H](O)[C@H](N)[C@H]3O)[C@H](NC(=O)[C@@H](O)[C@H](F)CN)C[C@@H]2N)O1 [Invention Compound No. 10, 1-N-{(2R,3R)-4-Amino-3-fluoro-2-hydroxybutyryl}-5,3',4'-trideoxy-5-fluorokanamycin B] | 1.56 (≈ 2.72 µM) | 3.12 (≈ 5.45 µM) | 3.12 (≈ 5.45 µM) | 3.12 (≈ 5.45 µM) | 0.39 (≈ 0.681 µM) | 1.56 (≈ 2.72 µM) | 0.2 (≈ 0.349 µM) | < 0.2 | 0.39 (≈ 0.681 µM) | 0.78 (≈ 1.36 µM) | 0.78 (≈ 1.36 µM) | < 0.2 | 0.39 (≈ 0.681 µM) | 0.39 (≈ 0.681 µM) | 0.78 (≈ 1.36 µM) | < 0.2 | 0.2 (≈ 0.349 µM) | < 0.2 | 0.78 (≈ 1.36 µM) | 0.78 (≈ 1.36 µM) | –
NC[C@@H](F)[C@H](O)C(=O)N[C@@H]1C[C@H](N)[C@@H](O[C@H]2O[C@H](CN)[C@@H](O)[C@H](O)[C@H]2N)[C@H](F)[C@H]1O[C@H]1O[C@H](CO)[C@@H](O)[C@H](N)[C@H]1O [Invention Compound No. 8, 1-N-{(2R,3R)-4-Amino-3-fluoro-2-hydroxybutyryl}-5-deoxy-5-fluorokanamycin B] | 3.12 (≈ 5.16 µM) | 6.25 (≈ 10.3 µM) | 3.12 (≈ 5.16 µM) | 6.25 (≈ 10.3 µM) | 0.39 (≈ 0.645 µM) | 1.56 (≈ 2.58 µM) | < 0.2 | 0.2 (≈ 0.331 µM) | 0.78 (≈ 1.29 µM) | 1.56 (≈ 2.58 µM) | 6.25 (≈ 10.3 µM) | 0.39 (≈ 0.645 µM) | 0.78 (≈ 1.29 µM) | 0.39 (≈ 0.645 µM) | 0.78 (≈ 1.29 µM) | 0.2 (≈ 0.331 µM) | 0.39 (≈ 0.645 µM) | 0.39 (≈ 0.645 µM) | 12.5 (≈ 20.7 µM) | 3.12 (≈ 5.16 µM) | –
NC[C@@H](F)[C@H](O)C(=O)N[C@@H]1C[C@H](N)[C@@H](O[C@H]2O[C@H](CN)[C@@H](O)C[C@H]2N)[C@H](F)[C@H]1O[C@H]1O[C@H](CO)[C@@H](O)[C@H](N)[C@H]1O [Invention Compound No. 9, 1-N-{(2R,3R)-4-Amino-3-fluoro-2-hydroxybutyryl}-5,3'-dideoxy-5-fluorokanamycin B] | 1.56 (≈ 2.65 µM) | 3.12 (≈ 5.3 µM) | 3.12 (≈ 5.3 µM) | 3.12 (≈ 5.3 µM) | 0.39 (≈ 0.663 µM) | 3.12 (≈ 5.3 µM) | < 0.2 | 0.2 (≈ 0.34 µM) | 0.39 (≈ 0.663 µM) | 0.78 (≈ 1.33 µM) | 0.78 (≈ 1.33 µM) | < 0.2 | 0.78 (≈ 1.33 µM) | 0.39 (≈ 0.663 µM) | 0.78 (≈ 1.33 µM) | 0.2 (≈ 0.34 µM) | < 0.2 | 0.2 (≈ 0.34 µM) | 1.56 (≈ 2.65 µM) | 0.78 (≈ 1.33 µM) | –
